One data set deals with hAPP-J20 mice. The data set is described as follows: Morris water maze, amyloid Alzheimer's model. Type of data set: in vivo. The following applies: 2.5 mg/kg/wk i.p. over 6 weeks, vs vehicle treated littermates. The source says: (§1) The Morris water maze was used to test the effect of ENT-03 on spatial learning and memory deficits in 2 mouse models of familial Alzheimer's disease, hAPP-J20 mice that express a double mutant of the human amyloid precursor protein (Mucke et al., 2000), and PS19 mice that express the P301S mutant of the human microtubule associated protein tau (Yoshiyama et al., 2007).
(§2) hAPP-J20 mice expressing human APP bearing the Swedish and Indiana familial mutations (B6.Cg-Zbtb20Tg(PDGFB-APPSwInd)20Lms/2Mmjax, (Mucke et al., 2000)) and PS19 mice expressing the P301S mutation of human tau protein (B6;C3-Tg(Prnp-MAPT*P301S)PS19Vle/J (Yoshiyama et al., 2007)) were purchased from Jackson laboratories and maintained as colonies in the animal facility of the University of Ottawa. Heterozygous hAPP-J20 and PS19 mice were used. Genotypes were verified by PCR using genomic DNA isolated from tail or ear biopsies. […]
(§3) The Morris water maze test to analyze the ability of mice to learn and remember the location of a submerged platform in a pool containing opaque water was conducted in the Faculty of Medicine Behavior Core Laboratory at the University of Ottawa. […] On the probe day, crossings of the platform area and target quadrant were counted and swimming speed was measured using Ethovision automated video tracking software (Noldus).

Data set [1] is described as follows: Weight loss, 3, 5, 10 mg/kg (FIG. 14). Conditions: intraperitoneal 3, 5, 10 mg/kg once weekly over 2 weeks. It is filed as in vivo, C57bl/6 male mice.
For the next data set, the system named is PS19 mice. The experiment in a line: Morris water maze, tau Alzheimer's model. It is filed as in vivo. The following applies: 2.5 mg/kg/wk i.p. over 6 weeks, vs vehicle treated littermates.
Description: as §1, §2, §3

Data set [2] has as its system stomach, jejunum and ileum. The experiment in a line: GI tract transcriptome (RNAseq) after oral ENT-03, young vs aged mice. It is filed as in vivo, C57bl/6 male mice. Here is the method: Young (20 week) and aged (80 week) C57bl/6 male mice were administered ENT-03 (40 mg/kg) or vehicle (water) by oral gavage daily for 2 weeks. Over this period of time clinical observations were unremarkable as were the gross and microscopic examinations of the GI tract. The transcriptomes of the stomach, jejunum and ileum were analyzed by RNAseq technology. Comparative analyses of the transcripts from untreated animals identified numerous transcripts that differed in abundance between the corresponding tissues from old and young individuals. […] Thus, within these three distinct regions of the mouse GI tract, ageing is associated with changes in the transcriptome.
Statistical analysis of RNA-sequencing data was performed using R programming language. Transcripts with less than one read count per million reads in all samples of each tissue were removed. The raw count data for the samples were then normalised using trimmed mean of M-values normalisation and transformed with voom (Law et al., 2014), resulting in log 2-transformed counts per million with associated precision weights. […] Statistical comparisons were performed using linear modelling, as implemented in the Bioconductor package limma (Ritchie et al., 2015). Significance values (p-values) were adjusted for multiple testing using Benjamini-Hochberg procedure (Benjamini et al., 1995). For each comparison (e.g. group A versus group B), a positive log 2-transformed fold change indicates up-regulation in group A relative to group B.
To investigate the overlap between contrasts, the number of overlapping differentially expressed genes (defined using adjusted p-value <0.05) between all pairwise combinations of the comparisons performed were counted. For each comparison, the Jaccard index, defined as the intersection over the union, measures the similarity between the two contrasts under consideration. The p-value was calculated using a hypergeometric test taking into account the universe size under the assumption that the contrasts and genes are independent.

Another data set deals with stomach tissues. The experiment in a line: Stomach RNA-sequencing, ENT-02 (MSI-1436) treatment and congruence with ENT-03 (Example 10). Type of data set: in vivo, mice. The method, then: Samples of stomach tissues from the mice were analysed by RNA-sequencing on an Illumina platform.
To achieve these aims, data were subject to a quality control evaluation, differential expression and functional enrichment analyses, as well as a congruence analysis.
[…] At this threshold, differentially expressed genes were identified in all contrasts.
As mentioned previously, for statistical robustness, only those with an adjusted p-value <0.05 should be considered. […]
The amount of overlap is represented in FIGS. 28A-28D. For each comparison, the value in the plot represents the number of intersecting selected genes and the color represents the Jaccard index (the intersection over the union) for the two contrasts under consideration.
Scatter plots, upset plots, venn diagrams, hypergeometric tests and Spearman rank correlation tests were employed to assess the level of overlap as shown in FIGS. 15-27.

In another data set the target is T1, PTPN1/PTP1B (Homo sapiens, UniProt P18031).
T1 construct: The enzyme was the human truncated form (1-321), recombinantly produced in Escherichia coli; host or cells: Escherichia coli
T1 sequence (P18031 1-321): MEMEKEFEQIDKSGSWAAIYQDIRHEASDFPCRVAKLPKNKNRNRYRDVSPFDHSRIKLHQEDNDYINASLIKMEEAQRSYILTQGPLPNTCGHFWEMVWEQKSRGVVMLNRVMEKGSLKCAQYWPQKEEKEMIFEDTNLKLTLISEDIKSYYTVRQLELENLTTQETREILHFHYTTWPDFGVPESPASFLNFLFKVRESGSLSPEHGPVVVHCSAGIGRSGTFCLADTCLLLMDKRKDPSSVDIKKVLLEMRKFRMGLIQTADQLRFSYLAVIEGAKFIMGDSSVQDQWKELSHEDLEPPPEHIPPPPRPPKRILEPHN
The experiment in a line: PTP1B inhibition, fluorescence time-course, 10-dose IC50 (Example 2). It is filed as biochemical.

Each structure is given as a SMILES string. “And” between values parts separate entries of the source, which are not always exact repeats. Equal values may be shown once. “Also recorded” adds a separate entry of the source.

The record followed here is patent US20250228873A1, “C25 R AND S ISOMERS OF AMINOSTEROLS AND METHODS OF MAKING AND USING THE SAME” (Enterin, Inc., priority 2022, published 2025).

Regarding `CC(CCC[C@@H](C)[C@H]1CCC2C3C(CC[C@@]21C)[C@@]1(C)CC[C@H](NCCCNCCCCNCCCN)C[C@@H]1C[C@H]3O)C(=O)O` (single isomer, unassigned) [ENT-03], the “learning during the training phase (latency to find the hidden platform)” value in the data set with hAPP-J20 mice was “improved; also recorded: decreased the latency to find the hidden platform”. For the same compound, in the data set on hAPP-J20 mice, the “memory on the probe day (platform area crossings, time in platform area)” value was “improved memory”. For the same compound, in data set [1], the “clinical appearance other than weight loss” value is “appeared clinically normal”. For the same compound, in data set [1], the “effect on weight” value is recorded as “dose dependent weight loss”. Moreover, the “learning during the training phase” value in the data set with PS19 mice is recorded as “improved”. For the same compound, the “memory on the probe day” value with PS19 mice is given as “improved”. In addition, in data set [2] (40 mg/kg oral gavage daily for 2 weeks, young and aged mice), the “clinical observations, gross and microscopic examinations of the GI tract” value is on record as “unremarkable”. The “genes differentially expressed on treatment” value in data set [2] (ileum, aged mice) is on record as 1162 genes; in data set [2] (ileum, young mice) it was 80 genes; in data set [2] (jejunum, aged mice), 382 genes; in data set [2] (jejunum, young mice), 42 genes. Also, the “genes whose expression changed significantly in response to exposure” value in data set [2] (jejunum and ileum, both young and aged mice) is given as “no more than 2 genes”. In data set [2] (stomach), the “genes down-regulated in ageing that are up-regulated by treatment in old mice” value is 37 genes and 36 genes. Besides, the “genes differentially expressed on treatment (p(adj)<0.05)” value was 63 genes in data set [2] (stomach, aged mice) and 13 genes in data set [2] (stomach, young mice (20 weeks)). Further, the “ageing genes further down regulated in the ageing direction by treatment” value in data set [2] (stomach, young mice) is listed as 12 genes.

Regarding `CC(C)[C@@H](CC[C@@H](C)[C@H]1CC[C@H]2[C@@H]3[C@H](O)C[C@H]4C[C@@H](NCCCNCCCCNCCCN)CC[C@]4(C)[C@H]3CC[C@]12C)OS(=O)(=O)O` (single isomer, unassigned) [ENT-02 (MSI-1436), trodusquemine], the “overlap of genes downregulated in aged mice with genes up-regulated by treatment in old mice” value in the data set on stomach tissues (hypergeometric P<0.0001) is “overlapped significantly”. Further, the “overlap of genes down-regulated in ageing and up-regulated in treatment with those of ENT-03” value in the data set with stomach tissues (stomach, congruence analysis) is given as “did not overlap with those affected by ENT-03”. For the same compound, the “Slope (signal/min)” value on PTPN1/PTP1B (Conc 1.00E−04 M) is recorded as −68 signal/min; at PTPN1/PTP1B (Conc 1.11E−05 M), 292 signal/min; at PTPN1/PTP1B (Conc 1.23E−06 M), 37260 signal/min; at PTPN1/PTP1B (Conc 1.37E−07 M), 40137 signal/min; on PTPN1/PTP1B (Conc 1.52E−08 M) it was 44021 signal/min; on PTPN1/PTP1B (Conc 3.33E−05 M) it was −440 signal/min. Also, the “Slope (signal/min)” value is on record as 16431 signal/min at PTPN1/PTP1B (Conc 3.70E−06 M), 39959 signal/min on PTPN1/PTP1B (Conc 4.12E−07 M), 42717 signal/min on PTPN1/PTP1B (Conc 4.57E−08 M) and 43513 signal/min at PTPN1/PTP1B (Conc 5.08E−09 M). This compound also yielded an HILLSLOPE at PTPN1/PTP1B (Table 5A) of −2.19.
